The nature of data set [1]: Respiratory function, whole body plethysmograph. The format is in vivo. As to conditions: conscious male Wistar rats, 75, 125 and 250 mg/kg oral, 3 hours. As for the experimental part: This study evaluated the effect of NRC-2694A monohydrochloride on respiratory function in conscious Wistar rats following administration of a single dose using a whole body plethysmograph. The study was conducted in accordance with “S7A Safety Pharmacology Studies for Human Pharmaceuticals, ICH” issued July 2001. The study used a parallel design with one vehicle and three test item treated groups. […] Male Wistar rats were placed in plethysmography chambers and baseline respiratory parameters were recorded for 30 minutes. Following drug administration respiratory parameters were recorded continuously for 3 hours.

Data set [2] in a line: Cardiovascular parameters in telemetered dogs. The format is in vivo, Beagle dogs. The conditions noted are these: for cardiovascular parameters (blood pressure, pulse pressure, heart rate, QT and QTcf intervals): telemetered male Beagle dogs, 15, 30 and 60 mg/kg b.wt. oral. As for the experimental part:
The study was conducted in accordance with ICH “S7A Safety Pharmacology Studies for Human Pharmaceuticals, Note for Guidance on Safety Pharmacology Studies for Human Pharmaceuticals, July 2001”. The doses tested were 0, 15, 30 and 60 mg/kg b.wt. given orally by gelatin capsule. Four male Beagle dogs, each implanted with a TL1IM2-D70-PCT transmitter (Data Sciences International, USA), were used for the study. During the study, the dogs were administered 4 oral treatments representing placebo and all test substance treatment groups with a three day (˜72 hour) wash-out period between each administration, using a Latin square cross-over design.
On dosing days, the telemetered dogs were observed once before commencement of data collection, continuously through 2 hours post-dose remotely and ˜8 hours post-dose for changes in behaviour. Cardiovascular parameters (systolic, diastolic and mean blood pressure, pulse pressure and heart rate) were recorded continuously for ˜60 minutes before dosing and up to 24 hours after dosing. Systolic, diastolic and mean blood pressures, pulse pressure and heart rate were obtained from the femoral artery waveform. Electrocardiograms were recorded continuously for ˜60 minutes before dosing and up to 24 hours after dosing. Electrocardiograms were obtained from subcutaneously placed bio-potential leads in a Lead II configuration. Heart rate and QT intervals were determined from the ECG's.

A short description of data set [3]: Functional observational battery (FOB). The format is in vivo, Wistar rats. As for the experimental part: The study was conducted in accordance with “S7A Safety Pharmacology Studies for Human Pharmaceuticals, ICH” July 2001, and as per this study protocol. […] Rats that had been fasted for 16 to 18 hours (access to water was not interrupted) were dosed with the compound or water. The rats were administered the compound in an aqueous formulation at three levels, 75, 125 and 250 mg/kg b.wt, as a single oral dose by gavage. The control group received water. The rats were subjected to the FOB 60-120 min. after drug administration.
Animals were subjected to the FOB one at a time except for the multiple activity cage where four animals were placed in four different cages simultaneously. Once complete, the animals were returned to their home cage and the cage placed back on the stand.
The FOB can be employed to assess multiple neurobiological domains including neuromuscular (weakness, in coordination, gait and tremor), sensory (audition, vision and somatosensory), and autonomic (pupil response and salivation) functions. The measures of a neuro behavioral screening battery have been divided into specific functional domains. For example, Lacrimation, salivation, pupil response, palpebral closure, defecation and urination are measures of some aspects of the autonomic system. Similarly the neuro muscular domain can be assessed based on the gait/mobility score, landing foot splay, grip strength and righting reflex; sensorimotor domain based on response to tail pinch and click/touch/approach response; CNS excitability domain based on ease of removal and handling of the animal, clonic/tonic movements, arousal and vocalization; CNS activity domain based on home cage posture, palpebral closure, rearing and motor activity and finally the physiological domain is assessed based on the body weight, body temperature and piloerection.

In the next data set the target is T1, HPK1 (Homo sapiens, UniProt Q92918).
T1 construct: host or cells: E. coli host derived from BL21, infected with T7 phage
T1 sequence (Q92918 whole entry): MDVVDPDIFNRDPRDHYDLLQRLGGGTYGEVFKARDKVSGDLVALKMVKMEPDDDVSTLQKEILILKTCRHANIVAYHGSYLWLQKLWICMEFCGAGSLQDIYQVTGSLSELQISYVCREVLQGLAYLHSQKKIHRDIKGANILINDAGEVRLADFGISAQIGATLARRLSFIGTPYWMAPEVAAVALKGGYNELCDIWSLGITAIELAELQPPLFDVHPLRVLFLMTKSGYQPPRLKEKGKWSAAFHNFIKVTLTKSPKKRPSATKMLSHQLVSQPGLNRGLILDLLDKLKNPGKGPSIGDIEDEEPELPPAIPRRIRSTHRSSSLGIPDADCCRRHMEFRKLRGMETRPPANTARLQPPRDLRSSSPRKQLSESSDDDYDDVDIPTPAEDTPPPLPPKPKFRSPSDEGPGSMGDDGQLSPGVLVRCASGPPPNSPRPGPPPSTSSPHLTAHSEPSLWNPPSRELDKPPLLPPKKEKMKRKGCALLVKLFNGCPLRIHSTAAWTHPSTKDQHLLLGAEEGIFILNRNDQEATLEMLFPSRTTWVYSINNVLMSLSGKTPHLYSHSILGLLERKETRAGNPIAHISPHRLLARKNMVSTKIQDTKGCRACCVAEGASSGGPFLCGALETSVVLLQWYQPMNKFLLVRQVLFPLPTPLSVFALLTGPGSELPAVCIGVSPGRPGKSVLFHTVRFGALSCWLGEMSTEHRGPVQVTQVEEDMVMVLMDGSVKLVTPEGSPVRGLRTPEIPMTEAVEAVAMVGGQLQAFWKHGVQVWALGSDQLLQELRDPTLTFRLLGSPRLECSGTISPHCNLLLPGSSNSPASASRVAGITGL
Briefly: KinomeScan kinase profiling. The format is binding.

Data set [4] in a line: Acute oral toxicity (MTD) in Wistar rats. The format is in vivo.
In data set [5] the target is T2, RPS6KA3 (Kin.Dom.-1-N-terminal) (Homo sapiens, UniProt P51812).
T2 construct: RPS6KA3 (Kin.Dom.-1-N-terminal); host or cells: E. coli host derived from BL21, T7 phage lysate
T2 sequence (P51812 68-327 limits assumed): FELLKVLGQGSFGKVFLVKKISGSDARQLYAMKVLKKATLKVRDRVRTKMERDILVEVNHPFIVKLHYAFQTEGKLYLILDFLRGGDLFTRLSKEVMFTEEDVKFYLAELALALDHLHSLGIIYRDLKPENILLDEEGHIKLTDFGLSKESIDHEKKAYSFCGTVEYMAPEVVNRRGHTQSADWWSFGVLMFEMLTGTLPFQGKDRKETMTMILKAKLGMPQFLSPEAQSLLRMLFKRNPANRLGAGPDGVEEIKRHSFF
Description: KinomeScan kinase profiling. The format is binding.

The subject of data set [6] is Salmonella typhimurium (TA 98, TA 100, TA 102, TA 1535 and TA 1537). Briefly: Ames bacterial reverse mutation assay. The conditions noted are these: five tester strains, with or without S9. As for the experimental part: The present study was conducted by the direct plate incorporation method with five tester strains of Salmonella typhimurium (TA 98, TA 100, TA 102, TA 1535 and TA 1537). […] Simultaneously, negative control cultures received DMSO and the respective positive controls received the mutagens 2-Amino anthracene, 2-Nitrofluorene, Sodium azide, 9-Aminoacridine and Mitomycin C (Sigma, St. Louis). In order to study the role of metabolic activation, cultures were incubated both with and without S9 mixture. The induction of Histidine positive colonies was computed and results were statistically treated for comparison.

The target in the next data set is T3, MARK1 (Homo sapiens, UniProt Q9P0L2).
T3 construct: host or cells: E. coli derived from BL21, infected with T7 phage
T3 sequence (Q9P0L2 whole entry): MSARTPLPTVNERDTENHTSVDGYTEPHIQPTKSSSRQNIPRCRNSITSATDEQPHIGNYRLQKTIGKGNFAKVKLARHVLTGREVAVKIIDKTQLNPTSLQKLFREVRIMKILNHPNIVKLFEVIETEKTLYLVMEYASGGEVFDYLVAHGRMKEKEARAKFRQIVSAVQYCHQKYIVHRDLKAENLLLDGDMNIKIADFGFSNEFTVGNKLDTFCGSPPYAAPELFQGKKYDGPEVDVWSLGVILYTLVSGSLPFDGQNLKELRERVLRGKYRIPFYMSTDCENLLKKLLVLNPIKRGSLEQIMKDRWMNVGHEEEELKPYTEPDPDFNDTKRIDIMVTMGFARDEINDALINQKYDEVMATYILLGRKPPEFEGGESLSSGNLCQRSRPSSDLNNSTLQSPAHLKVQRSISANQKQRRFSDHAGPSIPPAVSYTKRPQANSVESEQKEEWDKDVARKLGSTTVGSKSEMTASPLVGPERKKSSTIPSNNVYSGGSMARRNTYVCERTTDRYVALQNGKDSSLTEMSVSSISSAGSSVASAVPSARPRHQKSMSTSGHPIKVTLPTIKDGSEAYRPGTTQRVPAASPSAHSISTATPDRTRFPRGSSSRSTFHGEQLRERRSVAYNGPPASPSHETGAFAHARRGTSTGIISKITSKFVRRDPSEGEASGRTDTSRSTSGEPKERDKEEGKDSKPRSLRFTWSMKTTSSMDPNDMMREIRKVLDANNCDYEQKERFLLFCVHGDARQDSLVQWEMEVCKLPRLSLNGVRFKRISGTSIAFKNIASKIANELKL
Briefly: KinomeScan kinase profiling. The format is binding.

The target of a further data set is T4, DCAMKL1 (Homo sapiens, UniProt O15075).
T4 construct: purchased Ambit Biosciences Corp (KinomeScan); host or cells: T7 phage in E. coli host derived from BL21
T4 sequence (O15075 whole entry): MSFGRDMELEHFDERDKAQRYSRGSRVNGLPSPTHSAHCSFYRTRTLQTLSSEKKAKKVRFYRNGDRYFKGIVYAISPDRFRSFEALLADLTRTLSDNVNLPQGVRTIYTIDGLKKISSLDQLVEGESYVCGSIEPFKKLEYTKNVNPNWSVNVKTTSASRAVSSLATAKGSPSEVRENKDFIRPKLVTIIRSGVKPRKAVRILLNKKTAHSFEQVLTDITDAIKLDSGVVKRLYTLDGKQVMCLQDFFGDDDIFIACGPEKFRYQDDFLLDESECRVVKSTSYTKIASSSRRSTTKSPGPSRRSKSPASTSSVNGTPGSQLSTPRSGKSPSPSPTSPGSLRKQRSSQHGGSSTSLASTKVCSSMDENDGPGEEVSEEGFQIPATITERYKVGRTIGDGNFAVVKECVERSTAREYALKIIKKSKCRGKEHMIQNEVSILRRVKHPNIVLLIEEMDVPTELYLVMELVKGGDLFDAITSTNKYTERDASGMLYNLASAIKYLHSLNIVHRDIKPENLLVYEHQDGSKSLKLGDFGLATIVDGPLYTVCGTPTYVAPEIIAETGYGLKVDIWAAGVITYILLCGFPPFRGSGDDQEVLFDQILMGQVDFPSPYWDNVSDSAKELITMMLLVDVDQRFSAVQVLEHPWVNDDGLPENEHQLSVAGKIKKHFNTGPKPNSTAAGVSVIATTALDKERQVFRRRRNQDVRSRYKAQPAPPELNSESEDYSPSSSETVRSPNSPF
Briefly: KinomeScan kinase profiling. The format is binding.

In another data set the target is T5, DCAMKL2 (Homo sapiens, UniProt Q8N568).
T5 construct: purchased Ambit Biosciences Corp (KinomeScan); host or cells: T7 phage in E. coli host derived from BL21
T5 sequence (Q8N568 whole entry): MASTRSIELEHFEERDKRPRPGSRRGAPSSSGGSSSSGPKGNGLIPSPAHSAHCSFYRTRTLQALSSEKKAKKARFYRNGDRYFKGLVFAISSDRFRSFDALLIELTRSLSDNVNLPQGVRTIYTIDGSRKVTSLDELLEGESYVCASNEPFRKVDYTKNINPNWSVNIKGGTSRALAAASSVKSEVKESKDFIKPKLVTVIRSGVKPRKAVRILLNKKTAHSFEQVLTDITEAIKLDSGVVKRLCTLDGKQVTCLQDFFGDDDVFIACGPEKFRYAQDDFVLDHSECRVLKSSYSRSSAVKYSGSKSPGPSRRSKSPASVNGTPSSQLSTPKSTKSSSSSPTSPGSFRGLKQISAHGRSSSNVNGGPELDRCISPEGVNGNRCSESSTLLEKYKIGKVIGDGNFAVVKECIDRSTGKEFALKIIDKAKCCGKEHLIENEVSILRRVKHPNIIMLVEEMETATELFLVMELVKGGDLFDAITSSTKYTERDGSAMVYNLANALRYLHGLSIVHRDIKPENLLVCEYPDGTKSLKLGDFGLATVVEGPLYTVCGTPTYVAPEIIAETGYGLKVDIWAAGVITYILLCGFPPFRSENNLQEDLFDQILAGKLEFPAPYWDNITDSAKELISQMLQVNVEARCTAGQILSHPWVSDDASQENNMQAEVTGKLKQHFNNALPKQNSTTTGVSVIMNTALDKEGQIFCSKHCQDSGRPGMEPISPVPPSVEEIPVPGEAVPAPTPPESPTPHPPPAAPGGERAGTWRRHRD
Briefly: KinomeScan kinase profiling. The format is binding.

A short description of data set [7]: 30 day repeated dose toxicity in beagle dogs. The format is in vivo. As for the experimental part:
The methods followed were as per CPMP/SWP/1042/99 (July 2000) and ICH S3A (March (1995)) guidelines. Prior to the 30 day repeated dose study, a dose range finding study was conducted, which included single dose MTD study followed by a 10 day repeated dose study. […]. The route of dosing was oral, by gelatin capsule. Based on the results of the dose range finding study, doses for the 30 days study were selected.
The 30 day repeated dose study employed 12 male and 12 female dogs (Marshall's Farm, China). The dogs were acclimatized for a minimum period of 2 weeks and randomly divided into four main groups (G1-G4), each group comprising of 3 dogs per sex. The animals were dosed orally with capsules of NRC-2694A for a period of 30 consecutive days at dose levels of 10 mg/kg b.wt/day (G2-low dose), 20 mg/kg b.wt/day (G3-mid dose) and 40 mg/kg b.wt/day (G4-high dose). […]. The control group (G1-0 mg/kg b. wt/day) animals were dosed by oral capsule with placebo.
The study also tracked body weight (weekly), food consumption (daily), opthalmological status (start and end), hematological and biochemical analyses (start and end), toxicokinetics analysis of plasma (start and end). […]

With `C#Cc1cccc(Nc2ncnc3cc(OC)c(OCCCN4CCOCC4)cc23)c1` [NRC-2694, N-(3-ethylnylphenyl)-7-methoxy-6-[3-(4-morpholinyl)propoxy]-4-quinazolinamine], in data set [1], the “respiratory parameters: respiratory rate, tidal volume, minute volume, and Penh” value was “lacks toxicity against respiratory function”. The “cardiovascular parameters (blood pressure, pulse pressure, heart rate, QT and QTcf intervals)” value in data set [2] was “lacks toxicity against cardiovascular function”. In addition, the “neurotoxicity toward the central and peripheral nervous system” value in data set [3] (Wistar rats, FOB) is on record as “no evidence of neurotoxicity”. Moreover, the “% Ctrl @ 10000 nM” value on HPK1 worked out at 47 % Ctrl; in [5], 94 % Ctrl; on MARK1, 56 % Ctrl; on DCAMKL1, 92 % Ctrl; at DCAMKL2 it was 69 % Ctrl. The “MTD, mice compared with rats” value in [4] (rat, in vivo) was “the same in mice and rats”. In addition, the “mutagenicity in the Ames test” value in data set [6] is “not mutagenic”. Further, the “induction of His revertant colonies” value in data set [6] (0.0125-1.2500 mg/plate) was “lack of statistically significant induction”. In [7] (beagle dogs), the “toxicity compared with Erlotinib” value is given as “significantly less toxic than Erlotinib HCl”.
Consider `C#Cc1cccc(Nc2ncnc3cc(OC)c(OCCCN4CCOCC4)cc23)c1.Cl` [NRC-2694 monohydrochloride, N-(3-ethylnylphenyl)-7-methoxy-6-[3-(4-morpholinyl)propoxy]-4-quinazolinamine mono hydrochloride], for which, in data set [1], the “respiratory parameters: respiratory rate, tidal volume, minute volume, and Penh” value was “did not influence any of the observed parameters”. Further, the “no observed effect level” value in data set [2] (cardiovascular parameters, male Beagle dogs, oral) worked out at 60 mg/kg b.wt. In data set [2], the “cardiovascular parameters (blood pressure, pulse pressure, heart rate, QT and QTcf intervals)” value is listed as “no significant negative effects”. The “adverse effects in the functional observational battery” value in data set [3] (Wistar rats, 75, 125 and 250 mg/kg b.wt single oral dose) was “did not show any adverse effects”. In addition, the “influence on the parameters of the FOB” value in data set [3] (Wistar rats, 75, 125 and 250 mg/kg b.wt, 60-120 minutes post treatment) is given as “no influence on any of the parameters”. Further, the “maximum tolerated dose (MTD)” value in [4] (acute oral gavage, Wistar rats) amounted to 1000 mg/kg body weight. In data set [4] (rats), the gross pathological examination result is listed as “did not reveal any lesions of pathological significance, except minimal uterus distension in two female rats”. In [4] (rats, G4 1000 mg/kg body wt.), the “chromodacryoorhea, incidence” value is on record as 10/10; the “mild to severe lethargy, incidence” value is 10/10; the “piloerection, incidence” value was 10/10; the “ptosis, incidence” value is listed as 4/10. Further, the “weakness, incidence” value in data set [4] (rats, G4 1000 mg/kg body wt.) is recorded as 1/10. In addition, the “body weight and percent body weight change” value in data set [4] (rats, mid and high dose, days 7 and 14) is on record as “Statistically significant reduction”. Besides, in [4] (rats, oral gavage, 1000 mg/kg body weight (high dose)), the toxic signs entry is “marked toxic signs with reduction in body weight but devoid of any pathological lesions and mortality”. Moreover, the “major toxic signs or mortality” value in [4] (rats, oral gavage, 250 (low dose) and 500 mg/kg body weight (mid dose)) was “did not produce any major toxic signs or mortality”. For the same compound, the mortality entry in data set [4] (rats, oral, 250, 500 and 1000 mg/kg) is reported as “No mortality”. Also, the “mutagenicity in the Ames test” value in data set [6] was “non-mutagenic”. The “no observed adverse effect level (NOAEL)” value in [7] (beagle dogs, 30 days, orally by capsule) is recorded as 10 mg/kg b.wt/day. Moreover, in [7] (dogs, low dose (G2) 10 mg/kg b.wt/day, 30 days), the symptoms of toxicity result is reported as “No symptoms of toxicity”.

The values are drawn from US9050341B2, “Methods of treating drug resistant and other tumors by administering 6,7-dialkoxy quinazoline derivatives” (NATCO PHARMA LIMITED, priority 2009, dated 2015).
